Assays:
[1] = system: TFEB; assay: High content screen measuring TFEB nuclear accumulation (TFEB nuclear/cytosol ratio) in BEAS-2B cells stably expressing TFEB-EGFP; assay type: cell-based, human; conditions: 18 hours incubation
In short: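 BEAS-2B cells stably expressing TFEB-EGFP (~2300–2500 per well) pre-incubated 8 hours, then exposed to serially diluted compounds (DMEM low glucose, 2% FBS) for 18 hours, PFA-fixed and DAPI-stained. Imaged nuclear (DAPI mask) vs cytosolic (expanded mask) TFEB-GFP; activity = minimal concentration raising nuclear/cytosol ratio by 25%.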

[2] = system: BEAS-2B cells; assay: Toxicity: compound concentration needed to induce greater than 50 percent of cell loss; assay type: cell-based, human; conditions: 18 hours incubation
In short: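 BEAS-2B cells stably expressing TFEB-EGFP treated with serial compound dilutions for 18 h, then PFA-fixed, DAPI-stained and imaged. Toxicity scored as the concentration causing >50% cell loss, binned as ≥25 μM, <25 and >1 μM, or ≤1 μM ("+++").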

COc1ccc(-n2c(=O)c3ccc(C(=O)NCCc4ccccc4)cc3n(CC(=O)Nc3ccc(C)cc3)c2=O)cc1 [Compound 222]
efficacy (minimal compound concentration needed to increase TFEB nuclear/cytosol ratio by 25%) [1]: ++ (“++” equals between ≤25 μM and >1 μM)
toxicity (compound concentration needed to induce greater than 50 percent of cell loss) [2]: ++ (cell loss of greater than 50 percent at a concentration less than 25 μM and greater than 1 μM was represented as)

O=[N+]([O-])c1ccc(-c2nc(Nc3cccc(F)c3)c3ccccc3n2)cc1 [Compound 9]
efficacy (minimal compound concentration needed to increase TFEB nuclear/cytosol ratio by 25%) [1]: + (“+” equals >25 μM)
toxicity (compound concentration needed to induce greater than 50 percent of cell loss) [2]: + (cell loss of greater than 50 percent at a concentration that equals or is greater than 25 μM was represented as)

Cc1ccc(Nc2nc(-c3ccccc3Cl)nc3ccccc23)c(C)c1 [Compound 199]
efficacy (minimal compound concentration needed to increase TFEB nuclear/cytosol ratio by 25%) [1]: + (“+” equals >25 μM)
toxicity (compound concentration needed to induce greater than 50 percent of cell loss) [2]: + (cell loss of greater than 50 percent at a concentration that equals or is greater than 25 μM was represented as)

Cc1cc(F)cc(Nc2nc(-c3ccncc3)nc3ccccc23)c1 [Compound 1]
efficacy (minimal compound concentration needed to increase TFEB nuclear/cytosol ratio by 25%) [1]: +++ (“+++” equals ≤1 μM)
toxicity (compound concentration needed to induce greater than 50 percent of cell loss) [2]: + (cell loss of greater than 50 percent at a concentration that equals or is greater than 25 μM was represented as)

CC(C)(C)c1cc2cc(Nc3nc(-c4ccncc4)nc4ccccc34)ccc2[nH]1 [Compound 74]
efficacy (minimal compound concentration needed to increase TFEB nuclear/cytosol ratio by 25%) [1]: +++ (“+++” equals ≤1 μM)
toxicity (compound concentration needed to induce greater than 50 percent of cell loss) [2]: ++ (cell loss of greater than 50 percent at a concentration less than 25 μM and greater than 1 μM was represented as)

c1cnc2ccc(Nc3nc(-c4ccncc4)nc4ccccc34)cc2c1 [Compound 57]
efficacy (minimal compound concentration needed to increase TFEB nuclear/cytosol ratio by 25%) [1]: +++ (“+++” equals ≤1 μM)
toxicity (compound concentration needed to induce greater than 50 percent of cell loss) [2]: + (cell loss of greater than 50 percent at a concentration that equals or is greater than 25 μM was represented as)

c1ccc2c(NC3CC3)nc(-c3ccncc3)nc2c1 [Compound 165]
efficacy (minimal compound concentration needed to increase TFEB nuclear/cytosol ratio by 25%) [1]: + (“+” equals >25 μM)
toxicity (compound concentration needed to induce greater than 50 percent of cell loss) [2]: + (cell loss of greater than 50 percent at a concentration that equals or is greater than 25 μM was represented as)

[O-][n+]1ccc(-c2nc(Nc3ccc4[nH]ccc4c3)c3ccccc3n2)cc1 [Compound 66]
efficacy (minimal compound concentration needed to increase TFEB nuclear/cytosol ratio by 25%) [1]: + (“+” equals >25 μM)
toxicity (compound concentration needed to induce greater than 50 percent of cell loss) [2]: + (cell loss of greater than 50 percent at a concentration that equals or is greater than 25 μM was represented as)

c1cnc2nc(-c3ccncc3)nc(Nc3ccc4[nH]ccc4c3)c2c1 [Compound 81]
efficacy (minimal compound concentration needed to increase TFEB nuclear/cytosol ratio by 25%) [1]: +++ (“+++” equals ≤1 μM)
toxicity (compound concentration needed to induce greater than 50 percent of cell loss) [2]: ++ (cell loss of greater than 50 percent at a concentration less than 25 μM and greater than 1 μM was represented as)

Cc1nc2cc(C)c(Nc3nc(-c4ccncc4)nc4ccccc34)cc2s1 [Compound 86]
efficacy (minimal compound concentration needed to increase TFEB nuclear/cytosol ratio by 25%) [1]: +++ (“+++” equals ≤1 μM)
toxicity (compound concentration needed to induce greater than 50 percent of cell loss) [2]: +++ (cell loss of greater than 50 percent at a concentration that equals or is less than 1 μM was represented as “+++.”)

c1cc(Nc2nc(-c3ccncc3)nc3ccccc23)c2[nH]ncc2c1 [Compound 100]
efficacy (minimal compound concentration needed to increase TFEB nuclear/cytosol ratio by 25%) [1]: + (“+” equals >25 μM)
toxicity (compound concentration needed to induce greater than 50 percent of cell loss) [2]: + (cell loss of greater than 50 percent at a concentration that equals or is greater than 25 μM was represented as)

Fc1cccc2c(Nc3ccc4nc(C5CC5)sc4c3)nc(-c3ccncc3)nc12 [Compound 373]
efficacy (minimal compound concentration needed to increase TFEB nuclear/cytosol ratio by 25%) [1]: ++ (“++” equals between ≤25 μM and >1 μM)
toxicity (compound concentration needed to induce greater than 50 percent of cell loss) [2]: + (cell loss of greater than 50 percent at a concentration that equals or is greater than 25 μM was represented as)

Reference: patent US12286442B2, “Methods and materials for increasing transcription factor eb polypeptide levels” (University of Pittsburgh—Of the Commonwealth System of …, priority 2019, dated 2025)
